Results from patent publication US12091411B2, “IRAK degraders and uses thereof” (Kymera Therapeutics, Inc., priority 2022, dated 2024).
Read-outs that look alike come from different tables or passages of the source.

Target: T1, IRAK4 (Homo sapiens, UniProt Q9NWZ3)
T1 construct: Degradation of IRAK4 in OCI-LY10 was quantitatively measured using Meso Scale Discovery technology; endogenous in cells; host or cells: OCI-LY10
T1 sequence (Q9NWZ3 1-460): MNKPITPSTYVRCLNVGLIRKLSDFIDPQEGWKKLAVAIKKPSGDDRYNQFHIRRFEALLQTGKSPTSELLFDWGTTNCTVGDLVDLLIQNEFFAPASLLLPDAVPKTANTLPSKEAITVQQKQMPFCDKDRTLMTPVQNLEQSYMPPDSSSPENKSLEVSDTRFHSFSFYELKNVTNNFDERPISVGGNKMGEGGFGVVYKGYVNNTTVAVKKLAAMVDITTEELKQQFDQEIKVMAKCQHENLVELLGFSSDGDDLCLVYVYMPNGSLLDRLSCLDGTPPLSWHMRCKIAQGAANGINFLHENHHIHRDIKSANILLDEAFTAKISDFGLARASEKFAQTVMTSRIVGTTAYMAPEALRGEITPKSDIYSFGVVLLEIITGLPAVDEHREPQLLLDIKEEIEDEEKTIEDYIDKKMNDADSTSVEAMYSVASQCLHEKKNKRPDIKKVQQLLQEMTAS
Test: IRAK4 MSD Degradation in OCI-LY10
Format: cell-based
Details: OCI-LY10 cells, MSD
Procedure, shortened: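 OCI-LY10 cells exposed to 8-point 1:3 compound series (top 1 to 10 μM) for 4 to 24 h at 37 °C, 5% CO2. Lysate IRAK4 quantified by MSD sandwich immunoassay. DC50 from three-parameter logistic fit, binned A (<0.01 μM) to D (>0.2 μM or not tested).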

[1] = 4 hrs incubation, read-out: IRAK4 degradation in OCI-LY10 at 4 hrs: DC50
[2] = 24 hrs incubation, read-out: IRAK4 degradation in OCI-LY10 at 24 hrs: DC50

Structure (SMILES)	DC50 [1]	DC50 [2]
CN(CC[C@H]1CC[C@H](n2cc(NC(=O)c3cnn4cccnc34)c(C(F)F)n2)CC1)C1CCN(c2cccc3c2n(C)c(=O)n3C2CCC(=O)NC2=O)CC1(F)F (some centres unmarked) [I-503]	> 200 nM	> 200 nM
CN(C[C@H]1CC[C@H](n2cc(NC(=O)c3cnn4ccc(N5CCC5)nc34)c(C(F)F)n2)CC1)C1CCN(c2cccc3c2n(C)c(=O)n3C2CCC(=O)NC2=O)CC1(F)F (some centres unmarked) [I-504]	> 200 nM	> 200 nM
CN(C[C@H]1CC[C@H](n2cc(NC(=O)c3cnn4ccc(N5CC(C)(C)C5)nc34)c(C(F)F)n2)CC1)C1CCN(c2cccc3c2n(C)c(=O)n3C2CCC(=O)NC2=O)CC1(F)F (some centres unmarked) [I-505]	> 200 nM	> 200 nM
CN(C[C@H]1CC[C@H](n2cc(NC(=O)c3cnn4ccc(N5CC6(CC6)C5)nc34)c(C(F)F)n2)CC1)C1CCN(c2cccc3c2n(C)c(=O)n3C2CCC(=O)NC2=O)CC1(F)F (some centres unmarked) [I-506]	> 200 nM	> 200 nM
CN(C[C@H]1CC[C@H](n2cc(NC(=O)c3cnn4ccc(N5CC(F)(F)C5)nc34)c(C(F)F)n2)CC1)C1CCN(c2cccc3c2n(C)c(=O)n3C2CCC(=O)NC2=O)CC1(F)F (some centres unmarked) [I-507]	> 200 nM	> 200 nM
CN(C[C@H]1CC[C@H](n2cc(NC(=O)c3cnn4ccc(N5CC(O)C5)nc34)c(C(F)F)n2)CC1)C1CCN(c2cccc3c2n(C)c(=O)n3C2CCC(=O)NC2=O)CC1(F)F (some centres unmarked) [I-508]	> 200 nM	> 200 nM
CN(C[C@H]1CC[C@H](n2cc(NC(=O)c3cnn4ccc(N5CC6(COC6)C5)nc34)c(C(F)F)n2)CC1)C1CCN(c2cccc3c2n(C)c(=O)n3C2CCC(=O)NC2=O)CC1(F)F (some centres unmarked) [I-509]	> 200 nM	10 to 100 nM
CN(C[C@H]1CC[C@H](n2cc(NC(=O)c3cnn4ccc(N5CC6(CCCOC6)C5)nc34)c(C(F)F)n2)CC1)C1CCN(c2cccc3c2n(C)c(=O)n3C2CCC(=O)NC2=O)CC1(F)F (some centres unmarked) [I-510]	> 200 nM	10 to 100 nM
CN(C[C@H]1CC[C@H](n2cc(NC(=O)c3cnn4ccc(N5CC6(CCOCC6)C5)nc34)c(C(F)F)n2)CC1)C1CCN(c2cccc3c2n(C)c(=O)n3C2CCC(=O)NC2=O)CC1(F)F (some centres unmarked) [I-511]	> 200 nM	10 to 100 nM
CN(C[C@H]1CC[C@H](n2cc(NC(=O)c3cnn4ccc(N5CCCC5)nc34)c(C(F)F)n2)CC1)C1CCN(c2cccc3c2n(C)c(=O)n3C2CCC(=O)NC2=O)CC1(F)F (some centres unmarked) [I-512]	> 200 nM	10 to 100 nM
CN(C[C@H]1CC[C@H](n2cc(NC(=O)c3cnn4ccc(N5CCCC5(C)C)nc34)c(C(F)F)n2)CC1)C1CCN(c2cccc3c2n(C)c(=O)n3C2CCC(=O)NC2=O)CC1(F)F (some centres unmarked) [I-513]	> 200 nM	> 200 nM
CN(C[C@H]1CC[C@H](n2cc(NC(=O)c3cnn4ccc(N5CCCC56CC6)nc34)c(C(F)F)n2)CC1)C1CCN(c2cccc3c2n(C)c(=O)n3C2CCC(=O)NC2=O)CC1(F)F (some centres unmarked) [I-514]	> 200 nM	> 200 nM
CN(C[C@H]1CC[C@H](n2cc(NC(=O)c3cnn4ccc(N5CCCCC5)nc34)c(C(F)F)n2)CC1)C1CCN(c2cccc3c2n(C)c(=O)n3C2CCC(=O)NC2=O)CC1(F)F (some centres unmarked) [I-515]	> 200 nM	10 to 100 nM
CN(C[C@H]1CC[C@H](n2cc(NC(=O)c3cnn4ccc(N5CCC(C)(C)CC5)nc34)c(C(F)F)n2)CC1)C1CCN(c2cccc3c2n(C)c(=O)n3C2CCC(=O)NC2=O)CC1(F)F (some centres unmarked) [I-516]	> 200 nM	> 200 nM
CN(C[C@H]1CC[C@H](n2cc(NC(=O)c3cnn4ccc(N5CCCC(C)(C)C5)nc34)c(C(F)F)n2)CC1)C1CCN(c2cccc3c2n(C)c(=O)n3C2CCC(=O)NC2=O)CC1(F)F (some centres unmarked) [I-517]	> 200 nM	> 200 nM

Now from value to compound:

DC50 [1]	DC50 [2]	Structure (SMILES)
> 200 nM	> 200 nM	CN(C[C@H]1CC[C@H](n2cc(NC(=O)c3cnn4ccc(N5CCCCC5(C)C)nc34)c(C(F)F)n2)CC1)C1CCN(c2cccc3c2n(C)c(=O)n3C2CCC(=O)NC2=O)CC1(F)F (some centres unmarked) [I-518]
> 200 nM	> 200 nM	CN(C[C@H]1CC[C@H](n2cc(NC(=O)c3cnn4ccc(N5CCC(F)(F)CC5)nc34)c(C(F)F)n2)CC1)C1CCN(c2cccc3c2n(C)c(=O)n3C2CCC(=O)NC2=O)CC1(F)F (some centres unmarked) [I-519]
> 200 nM	> 200 nM	CC1CCN(c2ccn3ncc(C(=O)Nc4cn([C@H]5CC[C@H](CN(C)C6CCN(c7cccc8c7n(C)c(=O)n8C7CCC(=O)NC7=O)CC6(F)F)CC5)nc4C(F)F)c3n2)CC1 (some centres unmarked) [I-520]
> 200 nM	> 200 nM	CN(C[C@H]1CC[C@H](n2cc(NC(=O)c3cnn4ccc(N5CCC6(CC5)CC6)nc34)c(C(F)F)n2)CC1)C1CCN(c2cccc3c2n(C)c(=O)n3C2CCC(=O)NC2=O)CC1(F)F (some centres unmarked) [I-521]
> 200 nM	10 to 100 nM	CN(C[C@H]1CC[C@H](n2cc(NC(=O)c3cnn4ccc(N5CCOCC5)nc34)c(C(F)F)n2)CC1)C1CCN(c2cccc3c2n(C)c(=O)n3C2CCC(=O)NC2=O)CC1(F)F (some centres unmarked) [I-522]
> 200 nM	10 to 100 nM	CN(C[C@H]1CC[C@H](n2cc(NC(=O)c3cnn4ccc(N5C[C@@H]6C[C@H]5CO6)nc34)c(C(F)F)n2)CC1)C1CCN(c2cccc3c2n(C)c(=O)n3C2CCC(=O)NC2=O)CC1(F)F (some centres unmarked) [I-523]
> 200 nM	10 to 100 nM	CN(C[C@H]1CC[C@H](n2cc(NC(=O)c3cnn4ccc(N5C6COCC5C6)nc34)c(C(F)F)n2)CC1)C1CCN(c2cccc3c2n(C)c(=O)n3C2CCC(=O)NC2=O)CC1(F)F (some centres unmarked) [I-524]
> 200 nM	< 10 nM	CN(C[C@H]1CC[C@H](n2cc(NC(=O)c3cnn4ccc(N5CC6CC(C5)O6)nc34)c(C(F)F)n2)CC1)C1CCN(c2cccc3c2n(C)c(=O)n3C2CCC(=O)NC2=O)CC1(F)F (some centres unmarked) [I-525]
> 200 nM	10 to 100 nM	CN(C[C@H]1CC[C@H](n2cc(NC(=O)c3cnn4ccc(N5CC6CCC(C5)O6)nc34)c(C(F)F)n2)CC1)C1CCN(c2cccc3c2n(C)c(=O)n3C2CCC(=O)NC2=O)CC1(F)F (some centres unmarked) [I-526]
> 200 nM	10 to 100 nM	CN(C[C@H]1CC[C@H](n2cc(NC(=O)c3cnn4ccc(N5C6CCC5COC6)nc34)c(C(F)F)n2)CC1)C1CCN(c2cccc3c2n(C)c(=O)n3C2CCC(=O)NC2=O)CC1(F)F (some centres unmarked) [I-527]
> 200 nM	10 to 100 nM	C[C@H]1CN(c2ccn3ncc(C(=O)Nc4cn([C@H]5CC[C@H](CN(C)C6CCN(c7cccc8c7n(C)c(=O)n8C7CCC(=O)NC7=O)CC6(F)F)CC5)nc4C(F)F)c3n2)CCO1 (some centres unmarked) [I-528]
> 200 nM	10 to 100 nM	C[C@@H]1CN(c2ccn3ncc(C(=O)Nc4cn([C@H]5CC[C@H](CN(C)C6CCN(c7cccc8c7n(C)c(=O)n8C7CCC(=O)NC7=O)CC6(F)F)CC5)nc4C(F)F)c3n2)CCO1 (some centres unmarked) [I-529]
> 200 nM	10 to 100 nM	CN(C[C@H]1CC[C@H](n2cc(NC(=O)c3cnn4ccc(N5CCOC(C)(C)C5)nc34)c(C(F)F)n2)CC1)C1CCN(c2cccc3c2n(C)c(=O)n3C2CCC(=O)NC2=O)CC1(F)F (some centres unmarked) [I-530]
> 200 nM	> 200 nM	CN(C[C@H]1CC[C@H](n2cc(NC(=O)c3cnn4ccc(N5CC(C)(C)OC(C)(C)C5)nc34)c(C(F)F)n2)CC1)C1CCN(c2cccc3c2n(C)c(=O)n3C2CCC(=O)NC2=O)CC1(F)F (some centres unmarked) [I-531]
> 200 nM	> 200 nM	C[C@@H]1CN(c2ccn3ncc(C(=O)Nc4cn([C@H]5CC[C@H](CN(C)C6CCN(c7cccc8c7n(C)c(=O)n8C7CCC(=O)NC7=O)CC6(F)F)CC5)nc4C(F)F)c3n2)C[C@H](C)O1 (some centres unmarked) [I-532]
> 200 nM	> 200 nM	C[C@H]1CN(c2ccn3ncc(C(=O)Nc4cn([C@H]5CC[C@H](CN(C)C6CCN(c7cccc8c7n(C)c(=O)n8C7CCC(=O)NC7=O)CC6(F)F)CC5)nc4C(F)F)c3n2)C[C@H](C)O1 (some centres unmarked) [I-533]
> 200 nM	> 200 nM	CN(C[C@H]1CC[C@H](n2cc(NC(=O)c3cnn4ccc(N5CCO[C@@H](C(F)F)C5)nc34)c(C(F)F)n2)CC1)C1CCN(c2cccc3c2n(C)c(=O)n3C2CCC(=O)NC2=O)CC1(F)F (some centres unmarked) [I-535]
> 200 nM	> 200 nM	CN(C[C@H]1CC[C@H](n2cc(NC(=O)c3cnn4ccc(N5CCO[C@H](C(F)F)C5)nc34)c(C(F)F)n2)CC1)C1CCN(c2cccc3c2n(C)c(=O)n3C2CCC(=O)NC2=O)CC1(F)F (some centres unmarked) [I-536]
> 200 nM	> 200 nM	CN(C[C@H]1CC[C@H](n2cc(NC(=O)c3cnn4ccc(N5CCO[C@@H](C(F)(F)F)C5)nc34)c(C(F)F)n2)CC1)C1CCN(c2cccc3c2n(C)c(=O)n3C2CCC(=O)NC2=O)CC1(F)F (some centres unmarked) [I-537]
> 200 nM	> 200 nM	CN(C[C@H]1CC[C@H](n2cc(NC(=O)c3cnn4ccc(N5CCO[C@H](C(F)(F)F)C5)nc34)c(C(F)F)n2)CC1)C1CCN(c2cccc3c2n(C)c(=O)n3C2CCC(=O)NC2=O)CC1(F)F (some centres unmarked) [I-538]
> 200 nM	> 200 nM	CN(C[C@H]1CC[C@H](n2cc(NC(=O)c3cnn4ccc(N5CCOC6(CC6)C5)nc34)c(C(F)F)n2)CC1)C1CCN(c2cccc3c2n(C)c(=O)n3C2CCC(=O)NC2=O)CC1(F)F (some centres unmarked) [I-539]
> 200 nM	> 200 nM	CN(C[C@H]1CC[C@H](n2cc(NC(=O)c3cnn4ccc(N5CCOC6(CCC6)C5)nc34)c(C(F)F)n2)CC1)C1CCN(c2cccc3c2n(C)c(=O)n3C2CCC(=O)NC2=O)CC1(F)F (some centres unmarked) [I-540]
